The target of assay [1] is T1, HDAC11 (Homo sapiens, UniProt Q96DB2).
T1 sequence (Q96DB2 1-347): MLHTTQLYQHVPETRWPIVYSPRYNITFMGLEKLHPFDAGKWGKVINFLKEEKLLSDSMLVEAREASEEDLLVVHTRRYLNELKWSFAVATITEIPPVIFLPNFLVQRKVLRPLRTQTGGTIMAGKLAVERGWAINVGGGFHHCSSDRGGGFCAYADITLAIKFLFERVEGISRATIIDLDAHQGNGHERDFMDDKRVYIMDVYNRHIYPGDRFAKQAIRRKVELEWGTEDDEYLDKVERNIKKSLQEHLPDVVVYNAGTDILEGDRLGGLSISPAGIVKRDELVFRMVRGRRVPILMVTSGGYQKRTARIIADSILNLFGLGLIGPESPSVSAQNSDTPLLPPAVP
On the set-up: method as in PMID 31264832. The conditions noted are these: cited from earlier work.

In assay [2] the target is T1, HDAC11. Kind of assay: HDAC11 in cell assay: defatty acylation of SHMT2 (Alk14 labeling, Western blot). More on the design: endogenous in cells; host or cells: HEK293T. The conditions noted are these: HEK293T cells, 20 μM, 3 h, 50 μM Alk14. The format is cell-based.
Description: We treated HEK293T cells with an alkyne-tagged myristic acid analog, Alk14, along with the inhibitors (TD034, SIS17, or FT895) for 3 h. Click chemistry was performed on cell lysate with Biotin-azide, followed by Streptavidin pulldown. […] HEK293T in a six-well plate at 80% confluency was treated with 50 μM Alk14 and inhibitors at various concentrations. The cells were incubated for 3 h. The cells were harvested and lysed in 200 μL of 4% SDS lysis buffer (50 mM triethanolamine, 150 mM NaCl, 4% SDS, pH 7.4) with a 1:100 protease inhibitor cocktail and 1:1000 nuclease for 15 min. The cell lysates were then diluted with 3.8 mL of HEPES buffer (50 mM HEPES, 150 mM NaCl, 1% NP-40, pH 7.4), and then concentrated using Amicon Ultra-4 (30 kDa cutoff) for 45 min at 4000g. The retained samples were then diluted to 0.5 mL with HEPES buffer, followed by the addition of Biotin-N3 (5 μL, 5 mM in DMF), TBTA (5 μL, 2 mM in DMF), CuSO4 (5 μL, 50 mM in water), and TCEP (5 μL, 50 mM in water). The samples were shaken at 37 °C for 1 h, then diluted with 3 mL of HEPES buffer, and concentrated again using Amicon Ultra-4 (30 kDa cutoff) for 45 min at 4000g. The retained samples were then diluted to 0.5 mL with HEPES buffer, followed by the addition of 20 μg of magnetic streptavidin beads (prewashed with the HEPES buffer). […] The eluants were further analyzed by SDS-PAGE and Western blot for SHMT2.
Assay [3] deals with YAP1 target genes CTGF and CYR61 in A549 cells. Kind of assay: mRNA level of YAP1 and YAP1 target genes (CTGF, CYR61) by qRT-PCR in A549 cells. The format is cell-based. The conditions noted are these: 5 and 10 μM, 24 hr. How it is done:
(§1) A549 cells were treated with TD034 at 5 and 10 μM for 24 hr. Western blot was used to check for YAP1 protein level. qRT-PCR was used to check for YAP1 downstream genes transcription (CTGF and CYR61). Total RNA was extracted using IBI Isolate Total Extraction Reagent Kit (IB47602). […] of RNA was reverse transcribed using OneScript Plus cDNA Synthesis Kit (ABM G236) according to the manufacturer’s protocol. Real-time PCR was performed using BlasTaq 2X qPCR MasterMix (ABM G892) on a QuantStudio 3 Real-Time PCR System. All qPCR reactions were performed in triplicates. The list of primers is included in the Supporting Information.

Assay [4] concerns YAP1 protein level in A549 cells. Kind of assay: YAP1 protein level by Western blot in A549 cells. The class given is cell-based. As to conditions: A549 cells, 5 and 10 μM, 24 hr. How it is done: as §1
Assay [5] addresses T1, HDAC11. Kind of assay: HDAC11 enzyme activity assay (Myr-H3K9 peptide, HPLC). The class given is biochemical. More on the design: made in house. How it is done:
All quantified measurements were performed in triplicates. Data processing was performed using Graphpad Prism 9.5.0. Repeated measures of one-way ANOVA with Fisher’s LSD test were used to determine the P value. The dose–response data was fitted using a two-step nonlinear regression of the Morrison equation. […] HDACs and SIRTs were expressed and purified as previously described.[13] […] For HDAC1, 6, 8, and SIRT1-2, Ac-H3K9 was used as a substrate. […] The reaction was conducted for 15 min (HDAC11), 30 min (HDAC1, 4, 6, 8), and 5 min (SIRT1-2). Then, 20 μL of 0.2% TFA/acetonitrile was added to quench the reaction. The samples were analyzed by HPLC using a Chromolith HighResolution RP-18 end-capped 100 mm × 4.6 mm column (EMD Millipore). Mobile phase A was 0.1% TFA in water and mobile phase B was 0.1% TFA in acetonitrile. The total flow rate was 1 mL/min, and the gradient was 0% B (2 min), 0–60% B (7 min), 100% B (4 min), and 0% B (2 min). The relative ratio of product/substrate in each sample was compared to control sample (no inhibitor) to determine the inhibition level.

Assay [6] relates to α-tubulin, p53, and histone H3 acetylation levels. Put plainly: Acetylation levels of α-tubulin, p53 and histone H3 by Western blot in cells. The format is cell-based. The conditions noted are these: 3 h of treatment. The source says:
. As a positive control, we used trichostatin A (TSA), a nonselective HDAC inhibitor against both class I and class IIb HDACs.[25] […]

The values below come from article PMC10127203, “Trapoxin A Analogue as a Selective Nanomolar Inhibitor of HDAC11” (ACS Chemical Biology, 2023).

On to `O=C(CCCCCCC(=O)Nc1ccccc1)NO` [SAHA], for which the “inhibition of HDAC11 demyristoylation activity in vitro” value on HDAC11 [1] was “cannot efficiently inhibit”.
Take `CCCCCCCCCCCCCCCCNNC(=O)c1cccs1` [SIS17]: at HDAC11 [2], the “fatty acylation level of SHMT2” value was “same effect”. The “inhibition of HDAC11 demyristoylation activity in vitro” value on HDAC11 [1] is listed as “low micromolar inhibition”.
As for `CCCCCCCCCCC[C@@H]1O[C@H]1C(=O)CCCCC[C@@H]1NC(=O)[C@H]2CCCCN2C(=O)[C@H](Cc2ccccc2)NC(=O)[C@H](Cc2ccccc2)NC1=O` [TD034-(R)], in assay [3], the “mRNA levels of YAP1 target genes CTGF and CYR61” value is reported as “did not observe such an effect”. The YAP1 protein levels result in assay [4] is “did not observe such an effect”.
With `CCCCCCCCCCC1(C(=O)CCCCC[C@@H]2NC(=O)[C@H]3CCCCN3C(=O)[C@H](Cc3ccccc3)NC(=O)[C@H](Cc3ccccc3)NC2=O)CO1` (some centres unmarked) [TD036], the “HDAC11 inhibition (in words)” value at HDAC11 [5] is given as “abolished HDAC11 inhibition”.
On to `CC(/C=C/C(=O)NO)=C\[C@@H](C)C(=O)c1ccc(N(C)C)cc1` [TSA, trichostatin A, reference compound], for which, in assay [6], the “level of acetylated α-tubulin (HDAC6 and SIRT2 target)” value is “elevated level”; the “levels of acetylated histone H3 and acetylated p53 (class I HDACs and SIRT1 target)” value is given as “increased levels”.
